The text below walks through data of US6750025B1 (priority 1998, dated 2004).

Assay [1] has as its target streptavidin binding to the prion protein (Streptomyces avidinii, UniProt P22629).
Another assay addresses Streptavidin (Streptomyces avidinii, UniProt P22629). Conditions: cited from earlier work.
Assay [2] deals with T1, streptavidin binding to Gly-Tyr-Gly-Gln-Pro-His-Gly-Gly sequence attached to resin A (Streptomyces avidinii, UniProt P22629).
T1 construct: purchased Sigma (streptavidin-phosphatase); Commonwealth Biotechnologies Inc. (peptide resin)

Entries after “also recorded” stand apart in the source; their conditions may differ.

T1 sequence (P22629 25-183): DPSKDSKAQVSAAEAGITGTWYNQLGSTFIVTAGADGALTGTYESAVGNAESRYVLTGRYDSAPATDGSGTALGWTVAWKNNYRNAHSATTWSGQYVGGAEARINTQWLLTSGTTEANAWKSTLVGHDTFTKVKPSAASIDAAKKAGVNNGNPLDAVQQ
Sequence of streptavidin binding to the prion protein (P22629 25-183 limits assumed): as the sequence (P22629 25-183) above
Sequence of Streptavidin (P22629 25-183): as above

As for `O=C(O)CCCC[C@@H]1SC[C@@H]2NC(=O)N[C@@H]21` [D-biotin], the “competition with the production of signal” value in assay [1] (D-biotin added after binding of streptavidin to the proteins) is on record as “did not compete with the production of signal”. Also, the “inhibition of banding at 30-34 kDa” value in assay [1] (streptavidin-phosphatase mixed with 10 μM D-biotin prior to addition to the Western blot) is “completely inhibited”. In addition, at Streptavidin, the “affinity of streptavidin to biotin” value is ~10^15. Also, in assay [2], the “phosphatase activity in flow through of resin A after biotin pre-incubation” value is listed as “significant phosphatase activity; also recorded: found in the first few column volumes”.
